Patent US20100120762A1, “Triazine derivatives as inhibitors of phosphodiesterases” (WYETH, priority 2008, published 2010)

How the values were obtained:
PDE2A (NM002599) = biological target: T1, PDE2A (NM002599) (Homo sapiens, UniProt O00408); assay: Inhibition of recombinant PDE2A (expressed in baculovirus/SF21-cells); type: biochemical; conditions: recombinant PDE2A, 0.5 μM [3H]-cAMP, 1000 nM cGMP, 37° C., 30 minutes, SPA; read-out: PDE2A IC50
T1 construct: made in house; host or cells: baculovirus / SF21 insect cells
T1 sequence (O00408 whole entry): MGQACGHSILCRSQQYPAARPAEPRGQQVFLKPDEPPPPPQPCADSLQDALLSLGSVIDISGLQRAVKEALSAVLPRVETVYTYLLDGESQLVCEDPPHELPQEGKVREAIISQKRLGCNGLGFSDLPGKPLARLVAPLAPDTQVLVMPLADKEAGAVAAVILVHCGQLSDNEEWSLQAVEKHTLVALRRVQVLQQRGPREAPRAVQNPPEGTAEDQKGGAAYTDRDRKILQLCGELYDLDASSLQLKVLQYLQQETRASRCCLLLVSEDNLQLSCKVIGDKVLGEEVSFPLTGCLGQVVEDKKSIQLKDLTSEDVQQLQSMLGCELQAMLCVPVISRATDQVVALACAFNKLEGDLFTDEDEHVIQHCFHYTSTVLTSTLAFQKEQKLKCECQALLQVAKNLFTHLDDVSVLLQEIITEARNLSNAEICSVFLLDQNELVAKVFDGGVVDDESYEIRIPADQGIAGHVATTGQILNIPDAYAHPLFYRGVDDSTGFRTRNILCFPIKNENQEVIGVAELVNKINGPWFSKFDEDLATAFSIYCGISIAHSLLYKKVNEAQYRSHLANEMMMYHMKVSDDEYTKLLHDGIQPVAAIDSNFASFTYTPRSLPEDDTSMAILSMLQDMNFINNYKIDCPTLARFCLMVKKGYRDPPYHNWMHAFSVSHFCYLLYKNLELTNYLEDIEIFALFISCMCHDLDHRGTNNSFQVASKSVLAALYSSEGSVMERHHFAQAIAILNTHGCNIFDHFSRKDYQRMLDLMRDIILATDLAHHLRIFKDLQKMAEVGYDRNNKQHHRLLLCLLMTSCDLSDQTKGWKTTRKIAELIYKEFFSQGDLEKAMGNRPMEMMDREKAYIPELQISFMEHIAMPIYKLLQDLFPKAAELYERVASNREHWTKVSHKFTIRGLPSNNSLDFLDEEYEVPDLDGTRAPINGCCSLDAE
Description: PDE2A (NM002599) was cloned and the gene was inserted in the baculovirus and the enzyme-protein expressed in SF21-cells. The enzyme was isolated from these cells by harvesting the cells by an centrifugation at 200 g to collect the cells. The cells were resuspended in 50 mM Tris-HCl/5 mM MgCl2 buffer (pH=7.4) (Sigma, Deisenhofen, Germany; Merck, Darmstadt, Germany) and lysed by a sonication of the cells (three times for 15 seconds, Labsonic U, Fa. Braun, Degersheim, Switzerland, level “high”). The membrane fraction of PDE2A was obtained by a centrifugation at 48 000 g for 1 h, resuspended in buffer and stored at −70° C.
PDE2A activity was determined in a one step procedure in microtiterplates. The reaction mixture of 100 μl contained 50 mM Tris-HCl/5 mM MgCl2 buffer (pH=7.4) (Sigma, Deisenhofen, Germany; Merck, Darmstadt, Germany), 0.5 μM [3H]-cAMP (Amersham, Buckinghamshire, UK), 1000 nM cGMP and the enzyme. Non-specific enzyme activity was tested in the absence of cGMP. The reaction was initiated by addition of the substrate solution and was carried out at 37° C. for 30 minutes. Enzymatic activity then was stopped by addition of 25 μl SPA-beads (Amersham-Pharmacia). One hour later the mixture was measured in a liquid scintillation counter for microtiterplates (Microbeta Trilux). For pipetting of the incubation mixture the robot Biomek (Fa. Beckman) was routinely used.
The optimal amount of enzyme in the assay has been determined and optimised for each enzyme preparation separately before using the enzyme in compound testing. For determination of IC50 values the Hill-plot, 2-parameter-model, was used.

PDE10A1 (AB 020593) = biological target: T2, PDE10A1 (AB 020593) (Homo sapiens, UniProt Q9Y233); assay: Inhibition of recombinant PDE10A (baculovirus/SF21 system); type: biochemical; conditions: recombinant cytosolic PDE10A, 0.1 μM [3H]-cAMP, 37° C., 30 minutes, SPA; read-out: PDE10A IC50
T2 construct: made in house; host or cells: baculovirus / SF21 insect cells (gene synthesized by Entelechon GmbH)
T2 sequence (Q9Y233 other isoform, or with tags, fused parts or gaps): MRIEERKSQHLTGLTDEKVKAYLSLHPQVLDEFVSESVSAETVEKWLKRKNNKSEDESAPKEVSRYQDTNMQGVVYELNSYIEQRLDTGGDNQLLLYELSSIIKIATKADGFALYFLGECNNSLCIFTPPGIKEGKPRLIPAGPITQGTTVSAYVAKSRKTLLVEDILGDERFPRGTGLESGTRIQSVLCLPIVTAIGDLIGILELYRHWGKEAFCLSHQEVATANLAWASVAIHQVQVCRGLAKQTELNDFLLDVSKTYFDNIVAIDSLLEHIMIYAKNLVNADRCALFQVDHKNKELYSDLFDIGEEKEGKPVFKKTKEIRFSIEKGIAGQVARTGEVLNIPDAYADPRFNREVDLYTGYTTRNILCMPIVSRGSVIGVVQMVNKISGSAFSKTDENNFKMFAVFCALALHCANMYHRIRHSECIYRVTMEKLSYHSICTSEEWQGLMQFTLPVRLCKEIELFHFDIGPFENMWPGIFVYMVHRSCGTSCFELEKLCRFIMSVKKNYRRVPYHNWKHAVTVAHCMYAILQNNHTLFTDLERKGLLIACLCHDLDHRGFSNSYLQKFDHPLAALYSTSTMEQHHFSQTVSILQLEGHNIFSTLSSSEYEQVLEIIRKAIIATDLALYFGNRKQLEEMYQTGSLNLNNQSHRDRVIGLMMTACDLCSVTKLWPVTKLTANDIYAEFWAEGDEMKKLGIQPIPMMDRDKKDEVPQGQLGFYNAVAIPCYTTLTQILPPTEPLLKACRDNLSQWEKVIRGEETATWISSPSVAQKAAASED
Description: The DNA of PDE10A1 (AB 020593, 2340 bp) was synthesized and cloned into the vector pCR4.TOPO (Entelechon GmbH, Regensburg, Germany). The gene was than inserted into a baculovirus vector, ligated with the baculovirus DNA. The enzyme-protein was expressed in SF21-cells. The enzyme was isolated from these cells by harvesting the cells by an centrifugation at 500 g to collect the cells.
The cells were resuspended in 50 mM Tris-HCl/1 mM EDTA/250 mM Sucrose buffer, pH=7.4 (Sigma, Deisenhofen, Germany; Merck, Darmstadt, Germany) and lysed by sonification of the cells (three times for 15 seconds, Labsonic U, Fa. Braun, Degersheim, Switzerland, level “high”). The cytosolic PDE10A was obtained by a centrifugation at 48,000 g for 1 h in the supernatant and stored at −70° C.
PDE activity was determined in a one step procedure in microtiter plates. The reaction mixture of 100 μl contained 50 mM Tris-HCl/5 mM MgCl2 buffer (pH=7.4, Sigma, Deisenhofen, Germany; Merck, Darmstadt, Germany) 0.1 μM [3H]-cAMP (Amersham, Buckinghamshire, UK) and the enzyme. Non-specific enzyme activity was determined without the enzyme. The reaction was initiated by addition of the substrate solution and was carried out at 37° C. for 30 minutes. Enzymatic activity then was stopped by addition of 25 μl Ysi-SPA-beads (Amersham-Pharmacia). One h later the mixture was measured in a liquid scintillation counter for microtiter plates (Microbeta Trilux). The Biomek 2000 (Beckman) was used routinely for pipetting of the incubation mixture. The optimal amount of enzyme in the assay has been determined and optimized for each enzyme preparation separately before using the enzyme in compound testing. For determination of IC50 values the Hill-plot, 2-parameter-model, was used.

SMILES	IC50 (PDE2A (NM002599)) [nM]	IC50 (PDE10A1 (AB 020593)) [nM]
CCOc1cccc(-c2nc(C)c3nnc4ccc(OC)nc4n23)c1 [Example 36, 9-(3-ethoxyphenyl)-2-methoxy-7-methylimidazo[5,1-c]pyrido[2,3-e][1,2,4]triazine]	148	303
COc1ccc2nnc3c(C)nc(-c4cccc(OC)c4OC)n3c2n1 [Example 37, 9-(2,3-dimethoxyphenyl)-2-methoxy-7-methylimidazo[5,1-c]pyrido[2,3-e][1,2,4]triazine]	274	146
COc1ccc2nnc3c(C)nc(-c4cccc(OC)c4Cl)n3c2n1 [Example 39, 9-(2-chloro-3-methoxyphenyl)-2-methoxy-7-methylimidazo[5,1-c]pyrido[2,3-e][1,2,4]triazine]	111	115
COc1cncc(-c2nc(C)c3nnc4ccc(OC)nc4n23)c1 [Example 40, 2-methoxy-9-(5-methoxypyridin-3-yl)-7-methylimidazo[5,1-c]pyrido[2,3-e][1,2,4]triazine]	14	91.3
COc1ccc2nnc3c(C)nc(-c4cc(Cl)cnc4OC)n3c2n1 [Example 41, 9-(5-chloro-2-methoxypyridin-3-yl)-2-methoxy-7-methylimidazo[5,1-c]pyrido[2,3-e][1,2,4]triazine]	54.3	291
COc1ccc2nnc3c(C)nc(-c4cncc(F)c4)n3c2n1 [Example 43, 9-(5-fluoropyridin-3-yl)-2-methoxy-7-methylimidazo[5,1-c]pyrido[2,3-e][1,2,4]triazine]	272	367
COc1ccc2nnc3c(C)nc(-c4ccncc4)n3c2n1 [Example 44, 2-methoxy-7-methyl-9-pyridin-4-ylimidazo[5,1-c]pyrido[2,3-e][1,2,4]triazine]	477	348
COc1cc(-c2nc(C)c3nnc4ccc(OC)nc4n23)c(Cl)cn1 [Example 46, 9-(5-chloro-2-methoxypyridin-4-yl)-2-methoxy-7-methylimidazo[5,1-c]pyrido[2,3-e][1,2,4]triazine]	70.1	191
COc1ccc2nnc3c(C)nc(-c4ccc5nccn5c4)n3c2n1 [Example 48, 9-imidazo[1,2-a]pyridin-6-yl-2-methoxy-7-methylimidazo[5,1-c]pyrido[2,3-e][1,2,4]triazine]	550	260
COc1ccc2nnc3c(C)nc(-c4cc(C(C)=O)ccc4Cl)n3c2n1 [Example 49, 1-[4-chloro-3-(2-methoxy-7-methylimidazo[5,1-c]pyrido[2,3-e][1,2,4]triazin-9-yl)phenyl]ethanone]	27.5	403
COc1ccc2nnc3c(C)nc(-c4sc(C)nc4C)n3c2n1 [Example 54, 9-(2,4-dimethyl-1,3-thiazol-5-yl)-2-methoxy-7-methylimidazo[5,1-c]pyrido[2,3-e][1,2,4]triazine]	23	64.5
COc1cccc(-c2nc(C)c3nnc4ccc(OC)nc4n23)c1 [Example 58, 2-methoxy-9-(3-methoxyphenyl)-7-methylimidazo[5,1-c]pyrido[2,3-e][1,2,4]triazine]	14.7	37.7
COc1ccc(Cl)c(-c2nc(C)c3nnc4ccc(OC)nc4n23)c1 [Example 59, 9-(2-chloro-5-methoxyphenyl)-2-methoxy-7-methylimidazo[5,1-c]pyrido[2,3-e][1,2,4]triazine]	2.2	40.9
COc1ccc2nnc3c(C)nc(-c4ccc(C)cc4Cl)n3c2n1 [Example 61, 9-(2-chloro-4-methylphenyl)-2-methoxy-7-methylimidazo[5,1-c]pyrido[2,3-e][1,2,4]triazine]	7.54	21.6

The remaining lines, values ahead:

IC50 (PDE2A (NM002599)) [nM]	IC50 (PDE10A1 (AB 020593)) [nM]	SMILES
41.6	59.4	CCc1ccccc1-c1nc(C)c2nnc3ccc(OC)nc3n12 [Example 35, 9-(2-ethylphenyl)-2-methoxy-7-methylimidazo[5,1-c]pyrido[2,3-e][1,2,4]triazine]
243	617	CCOc1cccc(-c2nc(C)c3nnc4ccc(OC)nc4n23)c1F [Example 38, 9-(3-ethoxy-2-fluorophenyl)-2-methoxy-7-methylimidazo[5,1-c]pyrido[2,3-e][1,2,4]triazine]
751	< 5000	COc1ccc2nnc3c(C)nc(-c4cccnc4OC(C)C)n3c2n1 [Example 42, 2-methoxy-7-methyl-9-[2-(1-methylethoxy)pyridin-3-yl]imidazo[5,1-c]pyrido[2,3-e][1,2,4]triazine]
31.7	36.9	COc1ccc2nnc3c(C)nc(-c4ccncc4Cl)n3c2n1 [Example 45, 9-(3-chloropyridin-4-yl)-2-methoxy-7-methylimidazo[5,1-c]pyrido[2,3-e][1,2,4]triazine]
69.4	178	COc1ccc2nnc3c(C)nc(-c4cnccc4OC)n3c2n1 [Example 47, 2-methoxy-9-(4-methoxypyridin-3-yl)-7-methylimidazo[5,1-c]pyrido[2,3-e][1,2,4]triazine]
15.9	126	COc1ccc2nnc3c(C)nc(-c4cccnc4C)n3c2n1 [Example 50, 2-methoxy-7-methyl-9-(2-methylpyridin-3-yl)imidazo[5,1-c]pyrido[2,3-e][1,2,4]triazine]
142	388	COc1ccc2nnc3c(C)nc(-c4cnccc4C)n3c2n1 [Example 51, 2-methoxy-7-methyl-9-(4-methylpyridin-3-yl)imidazo[5,1-c]pyrido[2,3-e][1,2,4]triazine]
165	225	COc1ccc2nnc3c(C)nc(-c4ccncc4OC)n3c2n1 [Example 52, 2-methoxy-9-(3-methoxypyridin-4-yl)-7-methylimidazo[5,1-c]pyrido[2,3-e][1,2,4]triazine]
29.6	147	COc1ccc2nnc3c(C)nc(-c4cccnc4F)n3c2n1 [Example 53, 9-(2-fluoropyridin-3-yl)-2-methoxy-7-methylimidazo[5,1-c]pyrido[2,3-e][1,2,4]triazine]
144	682	COc1ccc2nnc3c(C)nc(-c4cccnc4)n3c2n1 [Example 55, 2-methoxy-7-methyl-9-pyridin-3-ylimidazo[5,1-c]pyrido[2,3-e][1,2,4]triazine]
21.3	35.6	COc1ccc2nnc3c(C)nc(-c4cccc(F)c4C)n3c2n1 [Example 56, 9-(3-fluoro-2-methylphenyl)-2-methoxy-7-methylimidazo[5,1-c]pyrido[2,3-e][1,2,4]triazine]
21.2	64.4	COc1ccc2nnc3c(C)nc(-c4ccc(F)cc4C)n3c2n1 [Example 57, 9-(4-fluoro-2-methylphenyl)-2-methoxy-7-methylimidazo[5,1-c]pyrido[2,3-e][1,2,4]triazine]
8	106	COc1ccc2nnc3c(C)nc(-c4cc(Cl)ccc4C)n3c2n1 [Example 60, 9-(5-chloro-2-methylphenyl)-2-methoxy-7-methylimidazo[5,1-c]pyrido[2,3-e][1,2,4]triazine]
5.32	21.2	COc1ccc2nnc3c(C)nc(-c4cc(F)ccc4Cl)n3c2n1 [Example 62, 9-(2-chloro-5-fluorophenyl)-2-methoxy-7-methylimidazo[5,1-c]pyrido[2,3-e][1,2,4]triazine]
